Test results from patent US10959984B2, “Methods for treating cancer with RORγ inhibitors” (THE REGENTS OF THE UNIVERSITY OF CALIFORNIA, priority 2015, dated 2021).

Tests used:
[1] = tested on: OVCAR420, T24, ECC1, HepG2, Hep3B, T98G, SUDHL4, SUDHL6, HCT116 and docetaxel-resistant C4-2B cells; test: CellTiter-GLO viability, cells of other cancer types; assay type: cell-based, human; details: ovarian OVCAR420, bladder T24, endometrial ECC1, liver HepG2 and Hep3B, glioblastoma T98G, DLBCL SUDHL4 and SUDHL6, colon HCT116, docetaxel-resistant C4-2B; 4 days
Procedure: (§1) For cell viability, cells were seeded in 96-well plates at 1500-2500 cells per well (optimum density for growth) in a total volume of 100 μl media. Serially diluted compounds in […] of media were added to the cells 12 hours later. After 4 days of incubation, Cell-Titer GLO reagents (Promega) were added and luminescence was measured on GLOMAX microplate luminometer (Promega), according to the manufacturer's instructions. All experimental points were set up as sextuplicate as biological replication and the entire experiments were repeated three times. The data are presented as percentage of viable cells with vehicle treated cells set as 100. The estimated in vitro IC50 values were calculated using GraphPad Prism 6 software.
(§2) Using a CellTiter-GLO assay, the viability of cells of different cancer types was measured after treatment with different concentrations of RORγ small molecule inhibitors for 4 days.

[2] = tested on: TNBC cells including MDA-MB468, MDA-MB231, BT20, SUM149, and HCC1937; test: CellTiter-GLO viability, triple-negative breast cancer cells; assay type: cell-based; details: Homo sapiens, 96 h, treated for 4 days
Procedure: as §1, §2

[3] = tested on: C4-2B, VCaP and 22Rv1 xenograft tumors; test: Xenograft tumor growth, three AR-positive tumor models; assay type: in vivo, mice; details: 5 mg/kg, i.p., five times per week; including ENZ-resistant 22Rv1
Procedure: Four-week-old male SCID C.B17 mice (for C4-2B and VCaP) or BALB/c nu/nu athymic mice (for 22Rv11 and PC-3) were purchased from Harlan Inc. For establishing tumors, 2×10^6 cells were suspended in total of 100 μL PBS/Matrigel (1:1) and implanted subcutaneously into the dorsal flank on both sides of the mice. Animal group size of six or more was estimated to have a high statistic power, based on power calculation (http://www.biomath.info/power/) and previous studies involving the same xenograft models^34,68. When the tumor volume was approximately 80 mm^3, the mice were randomized and then treated intraperitoneally (i.p.) with 100 μl of either vehicle or RORγ antagonists SR2211, XY011/8k (in a formulation of 15% Cremophor EL, Calbiochem, 82.5% PBS, and 2.5% DMSO) for five times per week. Tumor growth was monitored by calipers with volume calculated using the equation: (π/6 (length×width2)). Body weight during the course of the study was also monitored. At the end of the studies mice were killed and tumors were dissected and weighed. Additionally, prostate, seminal vesicle, testis, kidney, heart, lung, liver, epididymal fat pad and spleen were harvested and weighed. To assess the effect of combining RORγ antagonists and ENZ on the growth of castrated-resistant VCaP xenografts (CRPC-VCaP), first, SCID C.B17 mice were injected with VCaP cells as above to establish the tumors. […]

- IC50 [2]: 1 to 10 µM
Compound: OC(c1ccc(-c2ccc(CN3CCN(Cc4ccncc4)CC3)cc2)c(F)c1)(C(F)(F)F)C(F)(F)F [SR2211, 2-Fluoro-4′-[[4-(4-pyridinylmethyl)-1-piperazinyl]methyl]-a,a-bis (trifluoromethyl)-[1,1′-biphenyl]-4-methanol]
- growth and survival of cancer cells of other types [1]: significant inhibition of the growth and survival
- tumor growth [3]: effectively stopped the tumor growth
